# Results as given in patent US6737383B1, “Herbicidal oxadiazolidines” (priority 1999, dated 2004).
# What was measured:
# bedstraw = experiment: Test B pre/postemergence bedstraw; format: in vivo, Galium aparine
# Outline: (§1)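 Response is a visual 0-to-10 score relative to untreated plants, where 0 means no effect and 10 means complete control, taken twelve to sixteen days after application. Treatments went onto soil at planting and onto foliage of 1- to 4-leaf plants, using a surfactant-containing non-phytotoxic solvent.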
# blackgrass = experiment: Test B pre/postemergence blackgrass; format: in vivo, Alopecurus myosuroides
# Outline: as §1
# surinam grass = experiment: Test B pre/postemergence surinam grass; format: in vivo, Brachiaria decumbens
# Outline: as §1
# cocklebur = experiment: Test B pre/postemergence cocklebur; format: in vivo, Xanthium strumarium
# Outline: as §1
# corn = experiment: Test B pre/postemergence corn; format: in vivo, Zea mays
# Outline: as §1
# crabgrass = experiment: Test B pre/postemergence crabgrass; format: in vivo, Digitaria sanguinalis
# Outline: as §1
# giant foxtail = experiment: Test B pre/postemergence giant foxtail; format: in vivo, Setaria faberii
# Outline: as §1
# morningglory = experiment: Test B pre/postemergence morningglory; format: in vivo, Ipomoea hederacea
# Outline: as §1
# pigweed = experiment: Test B pre/postemergence pigweed; format: in vivo, Amaranthus retroflexus
# Outline: as §1
# soybean = experiment: Test B pre/postemergence soybean; format: in vivo, Glycine max
# Outline: as §1
# sugar beet = experiment: Test B pre/postemergence sugar beet; format: in vivo, Beta vulgaris
# Outline: as §1
# wild oat = experiment: Test B pre/postemergence wild oat; format: in vivo, Avena fatua
# Outline: as §1
# purple nutsedge = experiment: Test B pre/postemergence purple nutsedge; format: in vivo, Cyperus rotundus
# Outline: as §1
# rice = experiment: Test B flood test rice; format: in vivo, Oryza sativa
# Outline: (§2)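 Each value is a visual injury score relative to controls, with 10 meaning complete control and 0 no effect. Evaluation took place twelve to sixteen days after the 2-leaf-stage plants were treated and kept in the greenhouse.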
# smallflower flatsedge = experiment: Test B flood test smallflower flatsedge; format: in vivo, Cyperus difformis
# Outline: as §2
# duck salad = experiment: Test B flood test duck salad; format: in vivo, Heteranthera limosa
# Outline: as §2
# [1] = Preemergence, Rate 62 g/ha, scale of 0 to 10 where 0 is no effect and 10 is complete control
# [2] = Preemergence, Rate 250 g/ha, scale of 0 to 10 where 0 is no effect and 10 is complete control
# [3] = Preemergence, Rate 500 g/ha, scale of 0 to 10 where 0 is no effect and 10 is complete control
# [4] = Rate 62 g/ha, Postemergence, scale 0 to 10 (0 no effect, 10 complete control)
# [5] = Rate 125 g/ha, Postemergence, scale of 0 to 10 where 0 is no effect and 10 is complete control
# [6] = Rate 125 g/ha, Preemergence, scale of 0 to 10 where 0 is no effect and 10 is complete control
# [7] = Rate 250 g/ha, Postemergence, scale of 0 to 10 where 0 is no effect and 10 is complete control
# [8] = Rate 500 g/ha, Postemergence, scale 0 to 10, 0 no effect, 10 complete control
# [9] = Rate 62 g/ha, headed Pre-emergence (flood test species), scale 0 to 10 (0 no effect, 10 complete control)
# [10] = Rate 125 g/ha, Pre-emergence, flood test species, scale 0 to 10 where 0 is no effect and 10 is complete control
# [11] = Rate 250 g/ha, Pre-emergence, flood-test species, scale 0 to 10, 0 is no effect, 10 is complete control
# [12] = Rate 500 g/ha, Pre-emergence, flood test species, scale 0 to 10 (0 no effect, 10 complete control)
smiles,measurement,setting,value
CC(C)N(C(=O)n1oc(=O)n(C2CCCC2)c1=O)c1ccccc1 [Compound 283],Bedstraw plant response rating,bedstraw; [1],0
same,Bedstraw plant response rating,bedstraw; [2],1
same,"Plant response rating, Bedstraw",bedstraw; [3],9
same,Bedstraw plant response rating,bedstraw; [4],0
same,Bedstraw plant response rating,bedstraw; [5],1
same,Bedstraw plant response rating,bedstraw; [6],0
same,"Plant response rating, Bedstraw",bedstraw; [7],5
same,Bedstraw plant response rating,bedstraw; [8],6
same,Blackgrass plant response rating,blackgrass; [1],7
same,Blackgrass plant response rating,blackgrass; [2],9
same,"Plant response rating, Blackgrass",blackgrass; [3],10
same,Blackgrass plant response rating,blackgrass; [4],2
same,Blackgrass plant response rating,blackgrass; [5],6
same,Blackgrass plant response rating,blackgrass; [6],8
same,"Plant response rating, Blackgrass",blackgrass; [7],7
same,Blackgrass plant response rating,blackgrass; [8],7
same,B. signalgrass plant response rating,surinam grass; [1],6
same,B. signalgrass plant response rating,surinam grass; [2],10
same,"Plant response rating, B. signalgrass",surinam grass; [3],10
same,B. signalgrass plant response rating,surinam grass; [4],0
same,B. signalgrass plant response rating,surinam grass; [5],0
same,B. signalgrass plant response rating,surinam grass; [6],10
same,"Plant response rating, B. signalgrass",surinam grass; [7],0
same,B. signalgrass plant response rating,surinam grass; [8],2
same,Cocklebur plant response rating,cocklebur; [1],0
same,Cocklebur plant response rating,cocklebur; [2],0
same,"Plant response rating, Cocklebur",cocklebur; [3],0
same,Cocklebur plant response rating,cocklebur; [4],2
same,Cocklebur plant response rating,cocklebur; [5],2
same,Cocklebur plant response rating,cocklebur; [6],0
same,"Plant response rating, Cocklebur",cocklebur; [7],2
same,Cocklebur plant response rating,cocklebur; [8],2
same,Corn plant response rating,corn; [1],0
same,Corn plant response rating,corn; [2],0
same,"Plant response rating, Corn",corn; [3],0
same,Corn plant response rating,corn; [4],0
same,Corn plant response rating,corn; [5],0
same,Corn plant response rating,corn; [6],0
same,"Plant response rating, Corn",corn; [7],0
same,Corn plant response rating,corn; [8],0
same,Crabgrass plant response rating,crabgrass; [1],2
same,"Plant response rating, Crabgrass",crabgrass; [3],7
same,Crabgrass plant response rating,crabgrass; [4],0
same,Crabgrass plant response rating,crabgrass; [5],0
same,Crabgrass plant response rating,crabgrass; [6],7
same,"Plant response rating, Crabgrass",crabgrass; [7],1
same,Crabgrass plant response rating,crabgrass; [8],1
same,Giant foxtail plant response rating,giant foxtail; [1],8
same,Giant foxtail plant response rating,giant foxtail; [2],10
same,"Plant response rating, Giant foxtail",giant foxtail; [3],10
same,Giant foxtail plant response rating,giant foxtail; [4],0
same,Giant foxtail plant response rating,giant foxtail; [5],3
same,Giant foxtail plant response rating,giant foxtail; [6],9
same,"Plant response rating, Giant foxtail",giant foxtail; [7],4
same,Giant foxtail plant response rating,giant foxtail; [8],7
same,Morningglory plant response rating,morningglory; [1],0
same,Morningglory plant response rating,morningglory; [2],0
same,"Plant response rating, Morningglory",morningglory; [3],0
same,Morningglory plant response rating,morningglory; [4],8
same,Morningglory plant response rating,morningglory; [5],9
same,Morningglory plant response rating,morningglory; [6],0
same,"Plant response rating, Morningglory",morningglory; [7],9
same,Morningglory plant response rating,morningglory; [8],10
same,Redroot pigweed plant response rating,pigweed; [1],2
same,Redroot pigweed plant response rating,pigweed; [2],10
same,"Plant response rating, Redroot pigweed",pigweed; [3],10
same,Redroot pigweed plant response rating,pigweed; [4],4
same,Redroot pigweed plant response rating,pigweed; [5],4
same,Redroot pigweed plant response rating,pigweed; [6],6
same,"Plant response rating, Redroot pigweed",pigweed; [7],5
same,Redroot pigweed plant response rating,pigweed; [8],7
same,Soybean plant response rating,soybean; [1],0
same,Soybean plant response rating,soybean; [2],0
same,"Plant response rating, Soybean",soybean; [3],0
same,Soybean plant response rating,soybean; [4],4
same,Soybean plant response rating,soybean; [5],4
same,Soybean plant response rating,soybean; [6],0
same,"Plant response rating, Soybean",soybean; [7],5
same,Soybean plant response rating,soybean; [8],7
same,Sugarbeets plant response rating,sugar beet; [1],0
same,Sugarbeets plant response rating,sugar beet; [2],2
same,"Plant response rating, Sugarbeets",sugar beet; [3],5
same,Sugarbeets plant response rating,sugar beet; [4],0
same,Sugarbeets plant response rating,sugar beet; [5],2
same,Sugarbeets plant response rating,sugar beet; [6],0
same,"Plant response rating, Sugarbeets",sugar beet; [7],2
same,Sugarbeets plant response rating,sugar beet; [8],2
same,Wild oats plant response rating,wild oat; [1],0
same,Wild oats plant response rating,wild oat; [2],4
same,"Plant response rating, Wild oats",wild oat; [3],7
same,Wild oats plant response rating,wild oat; [4],0
same,Wild oats plant response rating,wild oat; [5],0
same,"Plant response rating, Wild oats",wild oat; [7],0
same,Wild oats plant response rating,wild oat; [8],0
same,Nutsedge plant response rating,purple nutsedge; [1],0
same,Nutsedge plant response rating,purple nutsedge; [2],0
same,"Plant response rating, Nutsedge",purple nutsedge; [3],0
same,Nutsedge plant response rating,purple nutsedge; [4],0
same,Nutsedge plant response rating,purple nutsedge; [5],0
same,Nutsedge plant response rating,purple nutsedge; [6],0
same,"Plant response rating, Nutsedge",purple nutsedge; [7],0
same,Nutsedge plant response rating,purple nutsedge; [8],0
same,Rice plant response rating,rice; [9],0
same,Rice plant response rating,rice; [10],0
same,Rice plant response rating,rice; [11],0
same,Rice plant response rating,rice; [12],1
same,S. Flatsedge plant response rating,smallflower flatsedge; [9],0
same,S. Flatsedge plant response rating,smallflower flatsedge; [10],0
same,S. Flatsedge plant response rating,smallflower flatsedge; [11],0
same,S. Flatsedge plant response rating,smallflower flatsedge; [12],5
same,Ducksalad plant response rating,duck salad; [9],0
same,Ducksalad plant response rating,duck salad; [10],0
same,Ducksalad plant response rating,duck salad; [11],0
same,Ducksalad plant response rating,duck salad; [12],0
